Test results from ChEMBL document CHEMBL5465560, “Selectivity Literature for EUbOPEN Chemogenomic Library” (2024).
Each block holds one compound with its values, some of them ahead of it.

What was measured:
[1] = target: T1, Mitogen-activated protein kinase kinase kinase 6 (Homo sapiens) (UniProt O95382); assay: Selectivity interaction (ActivX KiNativ screen (kinase selectivity in THP-1 cell lysates)) EUB0000639a MAP3K6; format: subcellular; conditions: lysate, at 0.04 µM
T1 sequence (whole entry): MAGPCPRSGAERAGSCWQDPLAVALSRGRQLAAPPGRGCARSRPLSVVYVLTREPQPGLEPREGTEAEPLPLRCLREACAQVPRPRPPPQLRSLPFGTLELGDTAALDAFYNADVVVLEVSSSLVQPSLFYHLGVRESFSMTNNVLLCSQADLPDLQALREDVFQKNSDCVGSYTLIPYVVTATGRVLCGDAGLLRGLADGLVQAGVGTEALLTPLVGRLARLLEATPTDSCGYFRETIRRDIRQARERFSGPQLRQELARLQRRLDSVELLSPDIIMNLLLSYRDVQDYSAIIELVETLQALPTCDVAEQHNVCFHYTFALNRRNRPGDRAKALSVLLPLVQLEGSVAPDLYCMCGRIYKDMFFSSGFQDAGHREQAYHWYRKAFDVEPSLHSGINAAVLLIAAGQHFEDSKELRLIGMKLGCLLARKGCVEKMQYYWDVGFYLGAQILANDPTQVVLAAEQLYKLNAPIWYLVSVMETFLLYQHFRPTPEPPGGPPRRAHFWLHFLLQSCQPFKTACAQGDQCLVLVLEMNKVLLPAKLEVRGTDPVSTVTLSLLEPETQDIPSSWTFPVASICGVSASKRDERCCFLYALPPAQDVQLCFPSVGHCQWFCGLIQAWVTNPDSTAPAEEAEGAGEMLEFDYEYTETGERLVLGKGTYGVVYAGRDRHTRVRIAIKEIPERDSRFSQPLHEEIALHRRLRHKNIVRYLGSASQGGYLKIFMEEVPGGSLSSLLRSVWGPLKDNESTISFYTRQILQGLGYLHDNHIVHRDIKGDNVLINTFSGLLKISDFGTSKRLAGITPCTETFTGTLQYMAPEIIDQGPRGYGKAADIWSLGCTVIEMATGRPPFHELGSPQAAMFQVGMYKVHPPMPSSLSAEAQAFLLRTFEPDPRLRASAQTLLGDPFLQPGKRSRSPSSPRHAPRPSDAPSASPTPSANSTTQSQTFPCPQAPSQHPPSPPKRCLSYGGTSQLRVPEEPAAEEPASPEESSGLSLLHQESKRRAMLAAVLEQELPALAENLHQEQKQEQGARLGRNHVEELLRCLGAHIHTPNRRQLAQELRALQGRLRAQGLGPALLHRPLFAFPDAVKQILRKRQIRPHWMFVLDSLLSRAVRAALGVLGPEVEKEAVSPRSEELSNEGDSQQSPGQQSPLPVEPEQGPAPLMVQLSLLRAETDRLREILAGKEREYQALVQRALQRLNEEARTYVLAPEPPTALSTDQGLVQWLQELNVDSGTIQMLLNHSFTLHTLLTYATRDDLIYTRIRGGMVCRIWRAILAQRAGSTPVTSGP

[2] = target: Serine/threonine-protein kinase 26 (Homo sapiens, UniProt Q9P289)
Serine/threonine-protein kinase 26, sequence (Q9P289 whole entry): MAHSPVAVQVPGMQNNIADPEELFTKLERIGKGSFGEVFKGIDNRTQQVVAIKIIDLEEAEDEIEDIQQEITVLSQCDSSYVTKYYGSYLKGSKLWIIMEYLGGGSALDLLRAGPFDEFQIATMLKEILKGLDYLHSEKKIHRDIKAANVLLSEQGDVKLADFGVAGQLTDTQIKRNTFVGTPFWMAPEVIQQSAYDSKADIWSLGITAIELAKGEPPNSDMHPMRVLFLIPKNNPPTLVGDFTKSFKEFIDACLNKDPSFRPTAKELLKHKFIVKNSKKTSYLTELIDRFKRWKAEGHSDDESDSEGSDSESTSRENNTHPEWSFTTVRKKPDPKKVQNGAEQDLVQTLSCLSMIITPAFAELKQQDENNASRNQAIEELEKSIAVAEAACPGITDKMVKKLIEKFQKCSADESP

[3] = target: T2, Uncharacterized serine/threonine-protein kinase SBK3 (Homo sapiens) (UniProt P0C264); assay: Selectivity interaction (KinomeScan (DiscoverX)) EUB0000695a SBK3; conditions: at 100 nM
T2 sequence (whole entry): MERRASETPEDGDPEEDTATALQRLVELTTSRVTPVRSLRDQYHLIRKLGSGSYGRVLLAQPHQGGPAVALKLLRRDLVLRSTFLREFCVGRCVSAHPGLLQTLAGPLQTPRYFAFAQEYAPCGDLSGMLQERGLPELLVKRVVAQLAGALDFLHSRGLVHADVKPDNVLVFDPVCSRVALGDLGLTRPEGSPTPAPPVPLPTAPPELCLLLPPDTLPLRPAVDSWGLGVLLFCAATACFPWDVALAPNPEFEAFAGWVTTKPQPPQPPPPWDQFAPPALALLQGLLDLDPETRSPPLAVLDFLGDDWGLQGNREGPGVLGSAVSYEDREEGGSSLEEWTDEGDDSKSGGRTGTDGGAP

[4] = target: RAC-beta serine/threonine-protein kinase (Homo sapiens) (UniProt P31751); conditions: at 10 µM
RAC-beta serine/threonine-protein kinase (Homo sapiens), sequence (P31751 whole entry): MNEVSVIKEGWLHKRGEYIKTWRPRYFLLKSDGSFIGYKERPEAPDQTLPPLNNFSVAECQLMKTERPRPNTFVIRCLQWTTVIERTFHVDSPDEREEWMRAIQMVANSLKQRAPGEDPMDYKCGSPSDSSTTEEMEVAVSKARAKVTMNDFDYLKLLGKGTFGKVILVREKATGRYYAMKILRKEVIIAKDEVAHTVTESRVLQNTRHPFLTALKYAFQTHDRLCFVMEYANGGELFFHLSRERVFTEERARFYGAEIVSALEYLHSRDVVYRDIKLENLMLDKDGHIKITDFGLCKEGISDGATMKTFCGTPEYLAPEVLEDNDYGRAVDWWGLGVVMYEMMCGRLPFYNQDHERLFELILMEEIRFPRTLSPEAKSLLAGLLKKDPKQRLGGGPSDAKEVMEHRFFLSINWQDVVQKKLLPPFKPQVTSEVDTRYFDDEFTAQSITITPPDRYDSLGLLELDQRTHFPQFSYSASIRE

[5] = target: Tyrosine-protein kinase Yes (Homo sapiens) (UniProt P07947); assay: Selectivity interaction (ProQinase) EUB0000171b YES1
Tyrosine-protein kinase Yes (Homo sapiens), sequence (P07947 2-543 limits assumed): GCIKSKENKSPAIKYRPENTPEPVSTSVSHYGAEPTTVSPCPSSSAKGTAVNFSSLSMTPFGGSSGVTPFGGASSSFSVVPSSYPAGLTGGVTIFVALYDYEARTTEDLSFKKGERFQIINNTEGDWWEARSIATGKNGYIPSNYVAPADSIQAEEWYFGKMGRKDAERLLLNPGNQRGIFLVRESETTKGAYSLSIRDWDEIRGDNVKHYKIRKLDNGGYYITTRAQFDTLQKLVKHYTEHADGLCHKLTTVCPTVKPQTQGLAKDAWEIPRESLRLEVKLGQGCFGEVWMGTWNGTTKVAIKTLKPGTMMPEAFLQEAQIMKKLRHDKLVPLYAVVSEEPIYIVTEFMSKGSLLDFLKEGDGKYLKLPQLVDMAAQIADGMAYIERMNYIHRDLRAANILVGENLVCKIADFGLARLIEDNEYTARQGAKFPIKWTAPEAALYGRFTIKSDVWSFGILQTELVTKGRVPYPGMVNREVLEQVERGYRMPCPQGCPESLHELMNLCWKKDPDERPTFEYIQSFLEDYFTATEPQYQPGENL

[6] = target: Ephrin type-A receptor 5 (Homo sapiens) (UniProt P54756); assay: Selectivity interaction (ProQinase) EUB0000171b EPHA5
Ephrin type-A receptor 5 (Homo sapiens), sequence (P54756 whole entry): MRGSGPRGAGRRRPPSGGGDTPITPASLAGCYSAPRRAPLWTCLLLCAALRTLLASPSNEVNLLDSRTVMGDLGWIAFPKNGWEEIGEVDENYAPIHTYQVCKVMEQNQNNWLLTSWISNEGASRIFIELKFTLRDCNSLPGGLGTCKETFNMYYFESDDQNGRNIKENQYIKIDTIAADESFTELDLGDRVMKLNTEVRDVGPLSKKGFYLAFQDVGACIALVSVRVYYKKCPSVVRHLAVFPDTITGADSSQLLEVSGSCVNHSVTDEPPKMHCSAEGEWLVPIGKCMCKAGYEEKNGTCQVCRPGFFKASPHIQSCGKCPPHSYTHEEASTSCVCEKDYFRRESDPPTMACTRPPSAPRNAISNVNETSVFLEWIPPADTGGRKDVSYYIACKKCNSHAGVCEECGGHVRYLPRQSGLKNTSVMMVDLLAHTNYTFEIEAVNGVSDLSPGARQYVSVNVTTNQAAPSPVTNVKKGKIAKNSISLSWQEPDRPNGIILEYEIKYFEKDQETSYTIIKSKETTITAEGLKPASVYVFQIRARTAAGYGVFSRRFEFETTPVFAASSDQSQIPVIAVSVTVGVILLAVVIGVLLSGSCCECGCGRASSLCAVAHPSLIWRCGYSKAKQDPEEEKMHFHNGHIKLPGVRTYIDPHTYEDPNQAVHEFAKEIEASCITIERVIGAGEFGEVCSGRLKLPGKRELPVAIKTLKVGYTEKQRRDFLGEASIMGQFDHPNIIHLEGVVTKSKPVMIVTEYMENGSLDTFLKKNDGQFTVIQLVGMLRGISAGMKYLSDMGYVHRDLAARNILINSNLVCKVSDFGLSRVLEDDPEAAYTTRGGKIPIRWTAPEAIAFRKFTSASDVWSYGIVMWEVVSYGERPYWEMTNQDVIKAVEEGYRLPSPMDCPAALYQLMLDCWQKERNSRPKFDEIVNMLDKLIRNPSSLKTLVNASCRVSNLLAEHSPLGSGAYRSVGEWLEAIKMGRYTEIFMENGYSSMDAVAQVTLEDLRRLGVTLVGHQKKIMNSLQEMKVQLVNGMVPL

[7] = target: Protein-tyrosine kinase 6 (Homo sapiens, UniProt Q13882); assay: Selectivity interaction (KinomeScan (DiscoverX)) EUB0000655a PTK6; conditions: at 10 µM
Protein-tyrosine kinase 6, sequence (Q13882 whole entry, looked up): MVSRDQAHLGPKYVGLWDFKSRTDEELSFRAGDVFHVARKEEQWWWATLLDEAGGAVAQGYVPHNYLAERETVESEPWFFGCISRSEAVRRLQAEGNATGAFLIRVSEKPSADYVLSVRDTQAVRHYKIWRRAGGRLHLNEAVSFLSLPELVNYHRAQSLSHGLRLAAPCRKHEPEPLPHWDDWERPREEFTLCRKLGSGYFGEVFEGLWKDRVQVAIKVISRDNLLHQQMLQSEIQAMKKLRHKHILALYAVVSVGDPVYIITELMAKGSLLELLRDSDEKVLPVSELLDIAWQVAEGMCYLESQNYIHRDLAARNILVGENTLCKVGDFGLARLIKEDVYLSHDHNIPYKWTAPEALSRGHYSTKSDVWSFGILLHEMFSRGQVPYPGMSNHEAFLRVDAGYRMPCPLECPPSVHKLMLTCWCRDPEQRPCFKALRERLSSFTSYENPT

[8] = target: Ribosomal protein S6 kinase alpha-1 (Homo sapiens, UniProt Q15418); assay: Selectivity interaction (KinomeScan (DiscoverX)) EUB0000666a RPS6KA1; conditions: at 10 µM
Ribosomal protein S6 kinase alpha-1, sequence (Q15418 whole entry): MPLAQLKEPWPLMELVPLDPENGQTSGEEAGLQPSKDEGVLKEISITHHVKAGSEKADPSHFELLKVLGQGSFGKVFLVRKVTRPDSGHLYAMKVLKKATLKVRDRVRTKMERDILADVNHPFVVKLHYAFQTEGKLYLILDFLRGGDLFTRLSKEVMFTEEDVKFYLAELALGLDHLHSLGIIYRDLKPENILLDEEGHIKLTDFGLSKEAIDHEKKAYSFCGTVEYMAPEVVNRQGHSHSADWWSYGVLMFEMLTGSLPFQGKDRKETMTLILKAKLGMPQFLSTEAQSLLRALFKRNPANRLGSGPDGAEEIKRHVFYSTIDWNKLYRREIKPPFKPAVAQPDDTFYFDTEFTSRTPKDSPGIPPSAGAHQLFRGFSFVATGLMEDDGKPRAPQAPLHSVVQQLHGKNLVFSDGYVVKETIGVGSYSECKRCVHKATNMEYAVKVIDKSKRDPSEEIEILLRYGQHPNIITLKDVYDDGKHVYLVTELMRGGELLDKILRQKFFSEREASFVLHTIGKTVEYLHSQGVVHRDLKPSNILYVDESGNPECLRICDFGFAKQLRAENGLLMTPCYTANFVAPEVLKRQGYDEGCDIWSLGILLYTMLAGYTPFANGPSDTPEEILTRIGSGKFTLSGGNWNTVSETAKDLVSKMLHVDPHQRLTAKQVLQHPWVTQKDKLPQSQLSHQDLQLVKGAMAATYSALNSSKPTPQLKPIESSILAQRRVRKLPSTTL

SMILES: Cc1cc(F)c(C(=O)Nc2cccc(-c3nncn3C(C)C)n2)cc1-n1cnc(C2CC2)c1
% of control [3]: 85%

SMILES: C=CC(=O)Nc1cccc(C(=O)Nc2ccc(Nc3cc(-c4[nH]c(SC)nc4C)ccn3)cc2)c1
% of control ([5]; at 1 µM): 89%
% of control ([5]; at 5 µM): 75%
% of control ([6]; at 1 µM): 94%
% of control ([6]; at 5 µM): 87%

SMILES: CN(C)CCOc1ccc(-c2nc(-c3ccncc3)c(-c3ccc4c(c3)CC/C4=N\O)[nH]2)cc1
% of control [7]: 82%

SMILES: O=C(NOC[C@H](O)CO)c1ccc(F)c(F)c1Nc1ccc(I)cc1F
% of control [8]: 84%

Other lines, results leading:

% of inhibition [1]: 3.6%
SMILES: CC[C@@H]1[C@H](F)C(=O)N[C@@H]1COc1nccc2cc(C(N)=O)c(OC)cc12 [ZIMLOVISERTIB]

IC50 [2]: > 10 µM
SMILES: CCc1cccc(CC)c1NC(=O)c1nn(C)c2c1CCc1cnc(Nc3ccc(C(=O)NC4CCN(C)CC4)cc3OC(F)(F)F)nc1-2

% of control [4]: 100%
SMILES: CCN(CC)CCCCNc1ncc2cc(-c3cc(OC)cc(OC)c3)c(NC(=O)NC(C)(C)C)nc2n1
